Values of other authors as cited in patent publication US20210324031A1, “COMPOUNDS, COMPOSITIONS, METHODS, AND USES FOR TREATING LEPTIN RESISTANCE, OBESITY, DIABETES MELLITUS AND METABOLIC SYNDROME” (priority 2019, published 2021).
Where a SMILES comes first, the peptide text is derived from it. [ ]: non-standard residue; d: D form. The star is where a group is joined. Dolaproine = CO[C@@H]([C@@H]1CCCN1)[C@@H](C)C(=O)O; Dil = CC[C@H](C)[C@H](NC)[C@@H](CC(=O)O)OC; X1 = C[C@@H](N*)[C@@H](O)c1ccccc1; NMeV = CN[C@H](C(=O)O)C(C)C

Tests used:
[1] = Human cancer clinical trials
[2] = tested on: CD30+ ALCL type tumor Karpas 299

Compound | toxicity in clinical trials [1] | control of tumor growth ([2]; ADC format, conjugated to an anti-CD30 antibody, drug to antibody ratio 2:1, MMAE dose 10 times lower than the free drug) | halt of tumor growth ([2]; free drug at maximal tolerated dose 0.3 mg/kg, compared with saline) | maximal tolerated dose ([2]; free drug, mice with human xenografted tumors) [mg/kg]
NS(=O)(=O)OC[C@H]1C[C@H](n2ccc3c(N[C@@H]4CCc5ccccc54)ncnc32)C[C@H]1O (stereo in doubt) [MLN4924, ((1R,2R,4S)-4-(4-(((R)-2,3-dihydro-1H-inden-1-yl)amino)-7H-pyrrolo[2,3-d]pyrimidin-7-yl)-2-hydroxycyclopentyl)methyl sulfamate] | toxic |  |  | 
CC[C@H](C)[C@@H]([C@@H](CC(=O)N1CCC[C@H]1[C@H](OC)[C@@H](C)C(=O)N[C@H](C)[C@@H](O)c1ccccc1)OC)N(C)C(=O)[C@@H](NC(=O)[C@@H](NC)C(C)C)C(C)C [MMAE, monomethyl auristatin E] (H-[NMeV]V[Dil][Dolaproine]-X1) |  | completely control tumor growth | only slightly better than saline | 0.3
